Results published in patent US7396837B2, “Antitumoral analogs of lamellarins” (Pharma Mar, S.A.U., priority 2002, dated 2008).
Where two headings read alike, the source gives them in different places.

Tests used:
Type in all cases: cell-based
[1] = test system: DU-145; test: SRB colorimetric cell growth inhibition assay, DU-145; conditions: Homo sapiens
How it was run: (§1)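 Human tumour cells continuously exposed to compound in 96-well culture; growth and viability quantified colorimetrically by sulforhodamine B staining. Mean ± SD from triplicate wells; GI (growth inhibition), TGI (total growth inhibition, cytostatic) and LC (cell killing, cytotoxic) parameters derived.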

[2] = test system: A-549; test: SRB colorimetric cell growth inhibition assay, A-549; conditions: Homo sapiens
How it was run: as §1

[3] = test system: HeLa-APL; test: SRB colorimetric cell growth inhibition assay, HeLa-APL (aplidine resistant); conditions: Homo sapiens; for GI50: read-out: GI50 HELA-APL; for CC50: read-out: LC50 HELA-APL; for IC (TGI): read-out: TGI HELA-APL
How it was run: as §1

[4] = test system: SK-MEL-28; test: SRB colorimetric cell growth inhibition assay, SK-MEL-28; conditions: Homo sapiens
How it was run: as §1

[5] = test system: IGROV; test: SRB colorimetric cell growth inhibition assay, IGROV; conditions: Homo sapiens, IGROV; for GI50: read-out: GI50 IGROV; for CC50: read-out: LC50 IGROV; for IC (TGI): read-out: TGI IGROV
How it was run: as §1

[6] = test system: K-562; test: SRB colorimetric cell growth inhibition assay, K-562; conditions: Homo sapiens
How it was run: as §1

[7] = test system: LoVo-Dox; test: SRB colorimetric cell growth inhibition assay, LoVo-Dox (MDR); conditions: Homo sapiens; for GI50: read-out: GI50 LOVO-DOX; for CC50: read-out: LC50 LOVO-DOX; for IC (TGI): read-out: TGI LOVO-DOX
How it was run: as §1

[8] = test system: HeLa; test: SRB colorimetric cell growth inhibition assay, HeLa; conditions: Homo sapiens, HeLa; for GI50: read-out: GI50 HELA; for CC50: read-out: LC50 HELA; for IC (TGI): read-out: TGI HELA
How it was run: as §1

[9] = test system: LoVo; test: SRB colorimetric cell growth inhibition assay, LoVo; conditions: Homo sapiens, LoVo; for GI50: read-out: GI50 LOVO; for CC50: read-out: LC50 LOVO; for IC (TGI): read-out: TGI LOVO
How it was run: as §1

[10] = test system: LNCaP; test: SRB colorimetric cell growth inhibition assay, LNCaP; conditions: Homo sapiens, LNCaP; for GI50: read-out: GI50 LN-caP; for CC50: read-out: LC50 LN-caP; for IC (TGI): read-out: TGI LN-caP
How it was run: as §1

[11] = test system: HT-29; test: SRB colorimetric cell growth inhibition assay, HT-29; conditions: Homo sapiens
How it was run: as §1

[12] = test system: PANC-1; test: SRB colorimetric cell growth inhibition assay, PANC-1; conditions: Homo sapiens
How it was run: as §1

[13] = test system: SK-BR-3; test: SRB colorimetric cell growth inhibition assay, SK-BR-3; conditions: Homo sapiens
How it was run: as §1

[14] = test system: IGROV-ET; test: SRB colorimetric cell growth inhibition assay, IGROV-ET (ET-743 resistant); conditions: Homo sapiens; for GI50: read-out: GI50 IGROV-ET; for CC50: read-out: LC50 IGROV-ET; for IC (TGI): read-out: TGI IGROV-ET
How it was run: as §1

[15] = DU-145, DU-145, GI=growth inhibition, read-out: GI50 DU-145
[16] = DU-145, DU-145, cell killing (cytotoxic effect), read-out: LC50 DU-145
[17] = DU-145, DU-145, total growth inhibition (cytostatic effect), read-out: TGI DU-145
[18] = A549, A-549, GI=growth inhibition, read-out: GI50 A-549
[19] = A549, A-549, cell killing (cytotoxic effect), read-out: LC50 A-549
[20] = A549, A-549, total growth inhibition (cytostatic effect), read-out: TGI A-549
[21] = HELA-APL, cell killing (cytotoxic effect)
[22] = HELA-APL, total growth inhibition (cytostatic effect)
[23] = SK-MEL-28, MEL-28, GI=growth inhibition, read-out: GI50 MEL-28
[24] = SK-MEL-28, MEL-28, cell killing (cytotoxic effect), read-out: LC50 MEL-28
[25] = SK-MEL-28, MEL-28, total growth inhibition (cytostatic effect), read-out: TGI MEL-28
[26] = cell killing (cytotoxic effect)
[27] = total growth inhibition (cytostatic effect)
[28] = K562, K-562, GI=growth inhibition, read-out: GI50 K-562
[29] = K562, K-562, cell killing (cytotoxic effect), read-out: LC50 K-562
[30] = K562, K-562, total growth inhibition (cytostatic effect), read-out: TGI K-562
[31] = LOVO-DOX, cell killing (cytotoxic effect)
[32] = LOVO-DOX, total growth inhibition (cytostatic effect)
[33] = LN-caP, cell killing (cytotoxic effect)
[34] = LN-caP, total growth inhibition (cytostatic effect)
[35] = HT-29, HT-29, GI=growth inhibition, read-out: GI50 HT-29
[36] = HT-29, HT-29, cell killing (cytotoxic effect), read-out: LC50 HT-29
[37] = HT-29, HT-29, total growth inhibition (cytostatic effect), read-out: TGI HT-29
[38] = PANC-1, PANC-1, GI=growth inhibition, read-out: GI50 PANC-1
[39] = PANC-1, PANC-1, cell killing (cytotoxic effect), read-out: LC50 PANC-1
[40] = PANC-1, PANC-1, total growth inhibition (cytostatic effect), read-out: TGI PANC-1
[41] = SK-BR-3, SK-BR-3, GI=growth inhibition, read-out: GI50 SK-BR-3
[42] = SK-BR-3, SK-BR-3, cell killing (cytotoxic effect), read-out: LC50 SK-BR-3
[43] = SK-BR-3, SK-BR-3, total growth inhibition (cytostatic effect), read-out: TGI SK-BR-3
[44] = IGROV-ET, cell killing (cytotoxic effect)
[45] = IGROV-ET, total growth inhibition (cytostatic effect)

COc1cc(-c2c3c4cc(OC)c(OC(=O)[C@H](C)NC(=O)[C@H](C)NC(=O)OC(C)(C)C)cc4oc(=O)c3n3ccc4c(OC(=O)[C@H](C)NC(=O)[C@H](C)NC(=O)OC(C)(C)C)c(OC)c(OC)cc4c23)ccc1OC(=O)[C@H](C)NC(=O)[C@H](C)NC(=O)OC(C)(C)C [Compound 6]
GI50 ([1]; DU-145, read-out: GI50 DU-145): 355 nM
CC50 ([1]; DU-145, read-out: LC50 DU-145): 7960 nM
IC (TGI) ([1]; DU-145, read-out: TGI DU-145): 1460 nM
GI50 ([2]; A549, read-out: GI50 A-549): 497 nM
CC50 ([2]; A549, read-out: LC50 A-549): 7960 nM
IC (TGI) ([2]; A549, read-out: TGI A-549): 7960 nM
GI50 [3]: 3410 nM
CC50 [3]: 7960 nM
IC (TGI) [3]: 7960 nM
GI50 ([4]; SK-MEL-28, read-out: GI50 MEL-28): 386 nM
CC50 ([4]; SK-MEL-28, read-out: LC50 MEL-28): 7960 nM
IC (TGI) ([4]; SK-MEL-28, read-out: TGI MEL-28): 1740 nM
GI50 [5]: 963 nM
CC50 [5]: 7960 nM
IC (TGI) [5]: 7960 nM
GI50 ([6]; K562, read-out: GI50 K-562): 482 nM
CC50 ([6]; K562, read-out: LC50 K-562): 7960 nM
IC (TGI) ([6]; K562, read-out: TGI K-562): 5380 nM
GI50 [7]: 3840 nM
CC50 [7]: 7960 nM
IC (TGI) [7]: 7960 nM
GI50 [8]: 584 nM
CC50 [8]: 7960 nM
IC (TGI) [8]: 7960 nM
GI50 [9]: 2790 nM
CC50 [9]: 7960 nM
IC (TGI) [9]: 7960 nM
GI50 [10]: 578 nM
CC50 [10]: 7960 nM
IC (TGI) [10]: 7960 nM
GI50 ([11]; HT-29, read-out: GI50 HT-29): 7960 nM
CC50 ([11]; HT-29, read-out: LC50 HT-29): 7960 nM
IC (TGI) ([11]; HT-29, read-out: TGI HT-29): 7960 nM
GI50 ([12]; PANC-1, read-out: GI50 PANC-1): 2460 nM
CC50 ([12]; PANC-1, read-out: LC50 PANC-1): 7960 nM
IC (TGI) ([12]; PANC-1, read-out: TGI PANC-1): 7960 nM
GI50 ([13]; SK-BR-3, read-out: GI50 SK-BR-3): 548 nM
CC50 ([13]; SK-BR-3, read-out: LC50 SK-BR-3): 7960 nM
IC (TGI) ([13]; SK-BR-3, read-out: TGI SK-BR-3): 2560 nM
GI50 [14]: 1390 nM
CC50 [14]: 7960 nM
IC (TGI) [14]: 7960 nM

COc1cc2c(cc1O)CCn1c-2cc2c3cc(OC)c(O)cc3oc(=O)c21 [Compound 196]
GI50 [1, 15]: 414 nM
CC50 [1, 16]: 11200 nM
IC (TGI) [1, 17]: 1650 nM
GI50 [2, 18]: 1680 nM
CC50 [2, 19]: 26400 nM
IC (TGI) [2, 20]: 26400 nM
GI50 ([3]; HELA-APL, GI=growth inhibition): 117 nM
CC50 [3, 21]: 1920 nM
IC (TGI) [3, 22]: 511 nM
GI50 [4, 23]: 675 nM
CC50 [4, 24]: 26400 nM
IC (TGI) [4, 25]: 8990 nM
GI50 ([5]; GI=growth inhibition): 691 nM
CC50 [5, 26]: 16500 nM
IC (TGI) [5, 27]: 2490 nM
GI50 [6, 28]: 234 nM
CC50 [6, 29]: 1500 nM
IC (TGI) [6, 30]: 614 nM
GI50 ([7]; LOVO-DOX, GI=growth inhibition): 517 nM
CC50 [7, 31]: 26400 nM
IC (TGI) [7, 32]: 26400 nM
GI50 ([8]; GI=growth inhibition): 351 nM
CC50 [8, 26]: 26400 nM
IC (TGI) [8, 27]: 1930 nM
GI50 ([9]; GI=growth inhibition): 799 nM
CC50 [9, 26]: 26400 nM
IC (TGI) [9, 27]: 3530 nM
GI50 ([10]; LN-caP, GI=growth inhibition): 398 nM
CC50 [10, 33]: 9780 nM
IC (TGI) [10, 34]: 1450 nM
GI50 [11, 35]: 8460 nM
CC50 [11, 36]: 26400 nM
IC (TGI) [11, 37]: 26400 nM
GI50 [12, 38]: 957 nM
CC50 [12, 39]: 26400 nM
IC (TGI) [12, 40]: 7250 nM
GI50 [13, 41]: 654 nM
CC50 [13, 42]: 26400 nM
IC (TGI) [13, 43]: 1650 nM
GI50 ([14]; IGROV-ET, GI=growth inhibition): 849 nM
CC50 [14, 44]: 26400 nM
IC (TGI) [14, 45]: 3850 nM

COc1cc(-c2c3c4cc(OC)c(OC(=O)[C@@H](N)C(C)C)cc4oc(=O)c3n3ccc4cc(OC(=O)[C@@H](N)C(C)C)c(OC)cc4c23)ccc1OC(=O)[C@@H](N)C(C)C [Compound 195]
GI50 [1, 15]: 13.7 nM
CC50 [1, 16]: 58.5 nM
IC (TGI) [1, 17]: 28.4 nM
GI50 [2, 18]: 113 nM
CC50 [2, 19]: 11000 nM
IC (TGI) [2, 20]: 1150 nM
GI50 ([3]; HELA-APL, GI=growth inhibition): 87.6 nM
CC50 [3, 21]: 536 nM
IC (TGI) [3, 22]: 234 nM
GI50 [4, 23]: 44.1 nM
CC50 [4, 24]: 1940 nM
IC (TGI) [4, 25]: 159 nM
GI50 ([5]; GI=growth inhibition): 25 nM
CC50 [5, 26]: 855 nM
IC (TGI) [5, 27]: 145 nM
GI50 [6, 28]: 11.7 nM
CC50 [6, 29]: 170 nM
IC (TGI) [6, 30]: 40.9 nM
GI50 ([7]; LOVO-DOX, GI=growth inhibition): 106 nM
CC50 [7, 31]: 2500 nM
IC (TGI) [7, 32]: 500 nM
GI50 ([8]; GI=growth inhibition): 51.3 nM
CC50 [8, 26]: 633 nM
IC (TGI) [8, 27]: 204 nM
GI50 ([9]; GI=growth inhibition): 150 nM
CC50 [9, 26]: 783 nM
IC (TGI) [9, 27]: 342 nM
GI50 ([10]; LN-caP, GI=growth inhibition): 22.1 nM
CC50 [10, 33]: 365 nM
IC (TGI) [10, 34]: 86.4 nM
GI50 [11, 35]: 2150 nM
CC50 [11, 36]: 8620 nM
IC (TGI) [11, 37]: 4310 nM
GI50 [12, 38]: 56.9 nM
CC50 [12, 39]: 3110 nM
IC (TGI) [12, 40]: 363 nM
GI50 [13, 41]: 45.5 nM
CC50 [13, 42]: 840 nM
IC (TGI) [13, 43]: 89.8 nM
GI50 ([14]; IGROV-ET, GI=growth inhibition): 41.7 nM
CC50 [14, 44]: 2740 nM
IC (TGI) [14, 45]: 215 nM
